Assay results from publication PMC7015960, “Effect of rifampin and itraconazole on the pharmacokinetics of zanubrutinib (a Bruton's tyrosine kinase inhibitor) in Asian and non-Asian healthy subjects” (Cancer Chemotherapy and Pharmacology, 2019).
Several values for one entry are separate records, joined by “and”; a condition that tells them apart may be missing. Equal values may be shown once. Read-outs that look alike come from different tables or passages of the source. Blank lines part the entries; values can stand above or below the compound they belong to.

Columns and labels:
[1] = cited from earlier work
[2] = Part A: single-dose PK of 320 mg zanubrutinib alone and with steady-state rifampin (CYP3A induction) in healthy subjects; assay type: in vivo, human; conditions: for CL/F / AUC(0-inf) / Cmax / half-life / Vd/F: geometric mean (CV%); for AUC(0-inf) / Cmax / half-life / Vd/F / Tmax: both sexes, human, plasma; for Vd/F: read-out: Vz/F; for Tmax: median (min–max)
Method: (§1) This was an open-label, parallel-group, fixed-sequence study in healthy male and female subjects conducted in two parts, Part A and Part B. Part A investigated the effect of CYP3A induction by steady-state rifampin on the single-dose PK of 320 mg zanubrutinib, and Part B investigated the effect of CYP3A inhibition by steady-state itraconazole on the single-dose PK of 20 mg zanubrutinib.
(§2) In Part A, participants received a single oral dose of zanubrutinib (320 mg) in the fasted state on Day 1 and Day 10. Oral rifampin (600 mg/day, Rifampin, VersaPharm Inc., Marietta, GA, USA) was administered once daily in the fasted state on Days 3 through 11. In Part B, participants received a single oral dose of zanubrutinib (20 mg) in the fasted state on Day 1 and Day 6. Oral itraconazole (200 mg/day, Sporanox® capsules, Janssen Pharmaceuticals, Titusville, NJ, USA) was administered once-daily approximately 30 min after completing a meal on Days 3, 4, 5, and 7, and in the fasted state on Day 6.
(§3) Serial blood samples were collected with zanubrutinib alone and when combined with rifampin or itraconazole for the measurement of zanubrutinib plasma concentrations. Plasma samples were collected at predose, 0.5, 1, 1.5, 2, 3, 4, 6, 8, 12, 24, 36, and 48 h postdose on Day 1 and Day 10 in Part A and on Day 1 and Day 6 in Part B.
(§4) Plasma concentrations of zanubrutinib were determined using validated high-performance liquid chromatography coupled with tandem mass spectrometry (HPLC–MS/MS) (Xenobiotic Laboratories, NJ, USA). Protein precipitation was utilized to extract the analyte and internal standard from human plasma containing dipotassium ethylenediaminetetraacetic acid (K2EDTA) as anticoagulant. The analytical method utilized a reversed-phase HPLC column (Supelco Ascentis Express C18 20 × 2.1 mm, 2.7 µm) with a gradient flow of 0.1% formic acid in water (Mobile Phase A) and methanol:acetonitrile (1:1) (Mobile Phase B) at a rate of 0.5 mL/min. The analyte and internal standard were detected using an AB Sciex API-4000 LC–MS/MS system equipped with a positive ESI ion detection.
(§5) The calibration range of zanubrutinib in the assay was 1.00 to 1000 ng/mL using a 50 μL aliquot of plasma, with the lower limit of quantification of 1.00 ng/mL.
(§6) Noncompartmental PK analysis was conducted using the Phoenix® WinNolin® software (Version 6.4). PK parameters were derived for zanubrutinib alone and in combination with rifampin or itraconazole, including area under the plasma concentration–time curve (AUC), maximum observed plasma concentration (Cmax), time of the maximum observed plasma concentration (tmax), apparent terminal elimination half-life (t1/2), apparent total oral clearance (CL/F), and apparent volume of distribution during the terminal elimination phase (Vz/F). Log-transformed area under the curve from time 0 extrapolated to time t (AUC0–t), area under the curve from time 0 extrapolated to infinite time (AUC0–∞), and Cmax of zanubrutinib were analyzed using a mixed model for each part of the study, including treatments as a fixed effect and subject as a random effect. Estimates of geometric mean ratios (GMRs) and the corresponding 90% confidence intervals (CIs) were derived for the comparisons of AUC0–∞, and Cmax as follows:
Part A: zanubrutinib coadministration with rifampin (test) versus zanubrutinib alone (reference),

[3] = Part B: single-dose PK of 20 mg zanubrutinib alone and with steady-state itraconazole (CYP3A inhibition) in healthy subjects; assay type: in vivo, human; conditions: for CL/F / AUC(0-inf) / Cmax / half-life / Vd/F: geometric mean (CV%); for AUC(0-inf) / Cmax / half-life / Vd/F / Tmax: both sexes, human, plasma; for Vd/F: read-out: Vz/F; for Tmax: median (min–max)
Method: as §1, §2, §3, §4, §5, §6
Part B: zanubrutinib coadministration with itraconazole (test) versus zanubrutinib alone (reference).

[4] = Safety and tolerability (TEAEs, laboratory, vital signs, QTcF) in healthy subjects, Parts A and B; assay type: in vivo, human
Text: Treatment-emergent adverse events (TEAEs) are summarized by part, treatment, National Cancer Institute Common Terminology Criteria for Adverse Events (v4.03) grade, and relationship to study drugs (zanubrutinib, rifampin, and itraconazole). The frequency of TEAEs is summarized by part, treatment, and Medical Dictionary for Regulatory Activities (MedDRA) system organ class (SOC) and preferred term. The summary and frequency TEAE tables are presented for all causalities and for those TEAEs considered related to the study drugs.

[5] = cited from earlier work; remark: listed apart in the source
[6] = system: cytochrome P450 3A (CYP3A); design: method as in unpublished data; conditions: human liver microsomes; ref unpublished data; cited from earlier work
[7] = 320 mg zanubrutinib with 600 mg rifampin vs alone
[8] = oral, 320 mg zanubrutinib + 600 mg rifampin QD, Day 10
[9] = oral, 320 mg, Asian subjects, Part A Day 1, 320 mg zanubrutinib alone
[10] = oral, 320 mg, Non-Asian subjects, Part A Day 1, 320 mg zanubrutinib alone
[11] = oral, Asian subjects, Part A Day 10, zanubrutinib + rifampicin
[12] = oral, Non-Asian subjects, Part A Day 10, zanubrutinib + rifampicin
[13] = oral, 320 mg zanubrutinib + 600 mg rifampin QD
[14] = oral, 320 mg zanubrutinib alone
[15] = zanubrutinib in combination with rifampin versus zanubrutinib alone
[16] = 20 mg zanubrutinib with 200 mg itraconazole vs alone
[17] = oral, 20 mg zanubrutinib + 200 mg itraconazole QD, Day 6
[18] = oral, 20 mg, Asian subjects, Part B Day 1, 20 mg zanubrutinib alone
[19] = oral, 20 mg, Non-Asian subjects, Part B Day 1, 20 mg zanubrutinib alone
[20] = oral, Asian subjects, Part B Day 6, zanubrutinib + itraconazole
[21] = oral, Non-Asian subjects, Part B Day 6, zanubrutinib + itraconazole
[22] = oral, 20 mg zanubrutinib + 200 mg itraconazole QD
[23] = zanubrutinib in combination with itraconazole versus zanubrutinib alone
[24] = patients with B-cell malignancies

SMILES: C=CC(=O)N1CCC[C@@H](n2nc(-c3ccc(Oc4ccccc4)cc3)c3c(N)ncnc32)C1 [ibrutinib]
increase in AUC with ketoconazole [1]: 24 fold

SMILES: CC#CC(=O)N1CCC[C@H]1c1nc(-c2ccc(C(=O)Nc3ccccn3)cc2)c2c(N)nccn12 [acalabrutinib]
decrease in AUC with rifampin [1]: 77% | increase in AUC with itraconazole [1]: 5.1 fold

CL/F ([2]; 320 mg zanubrutinib + 600 mg rifampin QD): 1249 L/h and 1249 (43) L/h | CL/F ([2]; 320 mg zanubrutinib alone): 93 L/h and 93 (36) L/h | decrease of AUC0–∞ on coadministration with rifampin [2, 7]: 13.5 fold | decrease of Cmax on coadministration with rifampin [2, 7]: 12.6 fold | AUC(0-inf) [2, 8]: 261 ng·h/mL | Cmax [2, 8]: 42 ng/mL | Cmax ([2]; oral, 320 mg, 320 mg zanubrutinib alone, Day 1): 532 ng/mL | AUC(0-inf) [2, 9]: 3460 ng·h/mL | Cmax [2, 9]: 543 ng/mL | AUC(0-inf) [2, 10]: 3410 ng·h/mL | Cmax [2, 10]: 525 ng/mL | AUC(0-inf) [2, 11]: 213 ng·h/mL | Cmax [2, 11]: 41 ng/mL | AUC(0-inf) [2, 12]: 293 ng·h/mL | Cmax [2, 12]: 43 ng/mL | half-life [2, 13]: 4.8 h | Vd/F [2, 13]: 8660 L | Tmax [2, 13]: 2 h | half-life [2, 14]: 6.8 h | Vd/F [2, 14]: 914 L | Tmax [2, 14]: 2 h | AUC(0-inf) ([2]; po, 320 mg, 320 mg zanubrutinib alone, single oral dose, fasted, Day 1): 3520 ng·h/mL | AUC0–∞ geometric ratio of adjusted means (90% CI) [2, 15]: 7.4% and 7.4 (6.0, 9.1) % | Cmax geometric ratio of adjusted means (90% CI) [2, 15]: 7.9% and 7.9 (6.6, 9.5) % | CL/F ([3]; 20 mg zanubrutinib + 200 mg itraconazole QD): 29 (31) L/h | CL/F ([3]; 20 mg zanubrutinib alone): 109 (29) L/h | increase of AUC0–∞ on coadministration with itraconazole [3, 16]: 3.8 fold and < 4 fold | increase of Cmax on coadministration with itraconazole [3, 16]: 2.6 fold | AUC(0-inf) [3, 17]: 693 ng·h/mL | Cmax [3, 17]: 122 ng/mL | Cmax ([3]; oral, 20 mg, 20 mg zanubrutinib alone, Day 1): 48 ng/mL | AUC(0-inf) [3, 18]: 174 ng·h/mL | Cmax [3, 18]: 50 ng/mL | AUC(0-inf) [3, 19]: 192 ng·h/mL | Cmax [3, 19]: 46 ng/mL | AUC(0-inf) [3, 20]: 694 ng·h/mL | Cmax [3, 20]: 124 ng/mL | AUC(0-inf) [3, 21]: 693 ng·h/mL | Cmax [3, 21]: 120 ng/mL | half-life [3, 22]: 4.3 h | Vd/F [3, 22]: 178 L | Tmax [3, 22]: 2 h | Vd/F ([3]; oral, 20 mg zanubrutinib alone): 341 L | half-life ([3]; oral, 20 mg zanubrutinib alone, terminal phase may not be adequately characterized): 2.2 h | Tmax ([3]; oral, 20 mg zanubrutinib alone): 1.5 h | AUC(0-inf) ([3]; po, 20 mg, 20 mg zanubrutinib alone, single oral dose, fasted, Day 1): 184 ng·h/mL | AUC0–∞ geometric ratio of adjusted means (90% CI) [3, 23]: 378% and 378 (344, 415) % | Cmax geometric ratio of adjusted means (90% CI) [3, 23]: 257% and 257 (226, 291) %
SMILES: C=CC(=O)N1CCC([C@@H]2CCNc3c(C(N)=O)c(-c4ccc(Oc5ccccc5)cc4)nn32)CC1 [zanubrutinib, Zanubrutinib]
PK parameters, Asian versus non-Asian subjects ([2]; 320 mg zanubrutinib alone on Day 1 and with 600 mg rifampin on Day 10): comparable between Asian and non-Asian subjects | PK, Asian versus non-Asian subjects ([3]; 20 mg zanubrutinib alone on Day 1 and with 200 mg itraconazole on Day 6): comparable between Asian and non-Asian subjects | overall incidence of TEAEs ([4]; both Part A and Part B): less than 30% | severity of TEAEs / SAEs / discontinuation ([4]; both parts, NCI CTCAE v4.03): no subject reported a TEAE higher than Grade 2 or an SAE, and no subject discontinued due to a TEAE | QTcF ([4]; during the study): No subject had a QTcF value > 450 ms or an increase from baseline in QTcF of > 60 ms | tolerability ([4]; single doses of 320 mg and 20 mg zanubrutinib alone or with 600 mg rifampin / 200 mg itraconazole, healthy subjects): well tolerated | mean half-life ([5]; patients with B-cell malignancies, PK generally assessed only for 8 h post-dose): 2 to 4 h | tolerability ([5]; patients with B-cell malignancies, total daily doses 40 to 320 mg): generally well tolerated | accumulation after repeated dosing [5, 24]: minimal accumulation | time of Cmax after oral dosing [5, 24]: approximately 2 h | dose dependence of exposure ([5]; total daily doses of 40–320 mg): increased in a dose-proportional manner | pathway of oxidative metabolism [6]: largely mediated through the cytochrome P450 3A (CYP3A) pathway
